Test results reported in ChEMBL document CHEMBL1201862, “PubChem BioAssay data set” (2004).
Active and inactive are the calls of the source.

What was measured:
[1] = molecular target: Sphingosine 1-phosphate receptor 2 (Homo sapiens, UniProt O95136); test: Dose Response Cell Based Assay for Antagonists of the S1P2 Receptor. [Related pubchem assays: 856, 736 ]; format: functional
[2] = luciferase reporter signal suppression in cells – H4 neuroglioma cells, luminescence, dose response (AID 1990); format: functional, cell-based
[3] = Luminescence Cell-Based Dose Response HTS to Identify Inhibitors of 5'UTR Stem-Loop Driven Prion Protein mRNA Translation in H4 Neuroglioblastoma Cells. [Related pubchem assays: 1827 (Project Summary), 1813 (Primary HTS)]; format: functional
[4] = alpha-synuclein stem-loop luciferase translation blockers – H4 neuroglioma cells, luminescence, confirmation (AID 1988); format: functional, cell-based
[5] = HEK-293T cell viability reduction – luminescence, B-cell screen hits, cytotoxicity control for BCR NF-kB inhibitor project, dose response (AID 489021); format: functional, cell-based;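 also: HEK-293T cells carrying an NF-kB luciferase reporter; cells exposed to compound for about 14 hours before viability readout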
[6] = molecular target: T1, Corticotropin-releasing factor receptor 2/Corticotropin-releasing factor-binding protein (Homo sapiens, UniProt P24387+Q13324); test: activators of CRF receptor 2 with binding protein – uHTS hits, confirmation (AID 602473); format: functional; details: read-out: EC50_Mean
T1 sequence (Q13324 whole entry): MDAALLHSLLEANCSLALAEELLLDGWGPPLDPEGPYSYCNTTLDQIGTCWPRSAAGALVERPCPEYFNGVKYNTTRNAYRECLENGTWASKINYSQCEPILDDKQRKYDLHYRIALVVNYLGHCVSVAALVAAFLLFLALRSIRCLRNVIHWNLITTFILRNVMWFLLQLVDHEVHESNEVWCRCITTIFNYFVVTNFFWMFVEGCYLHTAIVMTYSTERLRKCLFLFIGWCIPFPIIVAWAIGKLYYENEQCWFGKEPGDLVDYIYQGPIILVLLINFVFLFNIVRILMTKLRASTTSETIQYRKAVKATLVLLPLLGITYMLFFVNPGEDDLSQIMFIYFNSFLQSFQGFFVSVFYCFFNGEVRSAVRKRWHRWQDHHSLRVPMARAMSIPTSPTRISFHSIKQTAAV
T1 sequence (P24387 whole entry): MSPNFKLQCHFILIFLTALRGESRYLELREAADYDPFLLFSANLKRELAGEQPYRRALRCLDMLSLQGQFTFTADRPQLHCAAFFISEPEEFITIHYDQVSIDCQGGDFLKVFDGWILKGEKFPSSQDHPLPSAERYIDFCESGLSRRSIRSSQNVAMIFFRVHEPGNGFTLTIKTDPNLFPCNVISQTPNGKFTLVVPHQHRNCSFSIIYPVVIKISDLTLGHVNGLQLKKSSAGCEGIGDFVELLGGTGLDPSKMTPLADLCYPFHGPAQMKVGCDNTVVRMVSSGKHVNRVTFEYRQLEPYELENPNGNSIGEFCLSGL

[7] = molecular target: Mitogen-activated protein kinase 10 (Homo sapiens, UniProt P53779); test: Dose response biochemical screening assay for inhibitors of c-Jun N-Terminal Kinase 3 (JNK3). [Related pubchem assays: 746 ]
Sequence of Mitogen-activated protein kinase 10 (P53779 whole entry): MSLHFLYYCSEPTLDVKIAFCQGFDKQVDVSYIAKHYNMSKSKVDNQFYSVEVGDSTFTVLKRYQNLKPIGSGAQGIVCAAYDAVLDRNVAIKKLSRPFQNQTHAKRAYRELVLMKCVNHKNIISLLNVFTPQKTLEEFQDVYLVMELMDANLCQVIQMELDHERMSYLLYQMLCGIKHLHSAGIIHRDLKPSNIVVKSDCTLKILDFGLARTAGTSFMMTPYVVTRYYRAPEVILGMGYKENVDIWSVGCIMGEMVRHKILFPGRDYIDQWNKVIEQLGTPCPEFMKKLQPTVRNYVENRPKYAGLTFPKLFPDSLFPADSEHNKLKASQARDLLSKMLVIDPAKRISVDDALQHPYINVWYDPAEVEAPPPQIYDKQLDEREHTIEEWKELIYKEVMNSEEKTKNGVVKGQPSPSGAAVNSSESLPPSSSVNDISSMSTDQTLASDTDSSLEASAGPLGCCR

[8] = Trypanosoma cruzi growth suppression in host cells – NIH3T3 host cells, beta-gal luminescence, confirmation (AID 2044); format: functional, cell-based;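 also: intracellular parasites grown in NIH/3T3 mouse fibroblasts as host cells; luminescent beta-galactosidase reporter signal from transgenic T. cruzi replicating inside host cells; inhibitors lower the luminescence signal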
[9] = NIH3T3 cell viability loss – ATP luminescence, mouse fibroblasts, counter-screen, dose response (AID 2010); format: functional, cell-based;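 also: cells exposed to compound for about 90 hours before reading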
Beta-galactosidase = Beta-galactosidase (Escherichia coli, UniProt Q8VNN2); test: detection-enzyme interference by beta-gal modulators – biochemical, E. coli enzyme, set 3, artefact control for CCR6 antagonist project, dose response (AID 504712); format: functional
Sequence of Beta-galactosidase (Q8VNN2 whole entry): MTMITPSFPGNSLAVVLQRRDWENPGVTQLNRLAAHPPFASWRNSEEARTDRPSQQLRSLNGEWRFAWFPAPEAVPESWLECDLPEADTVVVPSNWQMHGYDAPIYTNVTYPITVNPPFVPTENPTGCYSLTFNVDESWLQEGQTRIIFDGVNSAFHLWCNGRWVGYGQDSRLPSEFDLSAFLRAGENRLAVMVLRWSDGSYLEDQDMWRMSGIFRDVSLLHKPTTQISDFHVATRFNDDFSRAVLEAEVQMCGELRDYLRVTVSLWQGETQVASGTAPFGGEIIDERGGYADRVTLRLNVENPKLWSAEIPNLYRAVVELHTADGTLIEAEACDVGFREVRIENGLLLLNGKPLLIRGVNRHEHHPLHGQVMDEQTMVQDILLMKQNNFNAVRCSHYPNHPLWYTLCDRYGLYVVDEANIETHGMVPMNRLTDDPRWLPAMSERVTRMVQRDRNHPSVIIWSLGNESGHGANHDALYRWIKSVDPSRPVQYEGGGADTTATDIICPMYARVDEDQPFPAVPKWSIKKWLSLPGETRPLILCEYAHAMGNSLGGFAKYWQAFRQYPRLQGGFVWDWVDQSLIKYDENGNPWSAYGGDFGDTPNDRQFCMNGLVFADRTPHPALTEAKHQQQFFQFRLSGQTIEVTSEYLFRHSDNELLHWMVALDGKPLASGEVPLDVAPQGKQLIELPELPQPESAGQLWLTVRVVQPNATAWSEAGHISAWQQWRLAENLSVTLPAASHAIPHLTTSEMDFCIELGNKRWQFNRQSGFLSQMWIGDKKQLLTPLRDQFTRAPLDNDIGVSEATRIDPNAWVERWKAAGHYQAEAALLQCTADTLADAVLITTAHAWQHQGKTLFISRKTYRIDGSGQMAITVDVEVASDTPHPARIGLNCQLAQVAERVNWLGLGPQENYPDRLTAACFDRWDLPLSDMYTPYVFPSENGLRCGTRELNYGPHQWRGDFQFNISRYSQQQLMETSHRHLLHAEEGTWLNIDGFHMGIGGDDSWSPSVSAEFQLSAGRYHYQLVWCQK

HeLa = test: viability loss in HeLa cells – cell-based, ATP luminescence, cherry-pick samples, cytotoxicity control, dose response (AID 687004); format: functional; details: Homo sapiens
HEK293 = test: viability loss in HEK293T cells – cell-based, ATP luminescence, cherry-pick samples, cytotoxicity control, dose response (AID 687005); format: functional; details: Homo sapiens;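 also: cells exposed to compound for 48 hours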
[10] = HEK293 Cytotoxicity Assay Measured in Cell-Based System Using Plate Reader - 7071-01_Inhibitor_Dose_CherryPick_Activity_Set2.; format: functional
[11] = molecular target: Voltage-gated N-type calcium channel alpha-1B subunit/Amyloid beta A4 precursor protein-binding family A member 1 (Homo sapiens, UniProt Q00975+Q02410); format: protein assay
Cryptococcus neoformans = test: PubChem AID 686997; format: functional, organism-based; details: Cryptococcus neoformans
[12] = molecular target: T2, Histone-lysine N-methyltransferase NSD2 (Homo sapiens, UniProt O96028); format: biochemical
T2 sequence (O96028 whole entry): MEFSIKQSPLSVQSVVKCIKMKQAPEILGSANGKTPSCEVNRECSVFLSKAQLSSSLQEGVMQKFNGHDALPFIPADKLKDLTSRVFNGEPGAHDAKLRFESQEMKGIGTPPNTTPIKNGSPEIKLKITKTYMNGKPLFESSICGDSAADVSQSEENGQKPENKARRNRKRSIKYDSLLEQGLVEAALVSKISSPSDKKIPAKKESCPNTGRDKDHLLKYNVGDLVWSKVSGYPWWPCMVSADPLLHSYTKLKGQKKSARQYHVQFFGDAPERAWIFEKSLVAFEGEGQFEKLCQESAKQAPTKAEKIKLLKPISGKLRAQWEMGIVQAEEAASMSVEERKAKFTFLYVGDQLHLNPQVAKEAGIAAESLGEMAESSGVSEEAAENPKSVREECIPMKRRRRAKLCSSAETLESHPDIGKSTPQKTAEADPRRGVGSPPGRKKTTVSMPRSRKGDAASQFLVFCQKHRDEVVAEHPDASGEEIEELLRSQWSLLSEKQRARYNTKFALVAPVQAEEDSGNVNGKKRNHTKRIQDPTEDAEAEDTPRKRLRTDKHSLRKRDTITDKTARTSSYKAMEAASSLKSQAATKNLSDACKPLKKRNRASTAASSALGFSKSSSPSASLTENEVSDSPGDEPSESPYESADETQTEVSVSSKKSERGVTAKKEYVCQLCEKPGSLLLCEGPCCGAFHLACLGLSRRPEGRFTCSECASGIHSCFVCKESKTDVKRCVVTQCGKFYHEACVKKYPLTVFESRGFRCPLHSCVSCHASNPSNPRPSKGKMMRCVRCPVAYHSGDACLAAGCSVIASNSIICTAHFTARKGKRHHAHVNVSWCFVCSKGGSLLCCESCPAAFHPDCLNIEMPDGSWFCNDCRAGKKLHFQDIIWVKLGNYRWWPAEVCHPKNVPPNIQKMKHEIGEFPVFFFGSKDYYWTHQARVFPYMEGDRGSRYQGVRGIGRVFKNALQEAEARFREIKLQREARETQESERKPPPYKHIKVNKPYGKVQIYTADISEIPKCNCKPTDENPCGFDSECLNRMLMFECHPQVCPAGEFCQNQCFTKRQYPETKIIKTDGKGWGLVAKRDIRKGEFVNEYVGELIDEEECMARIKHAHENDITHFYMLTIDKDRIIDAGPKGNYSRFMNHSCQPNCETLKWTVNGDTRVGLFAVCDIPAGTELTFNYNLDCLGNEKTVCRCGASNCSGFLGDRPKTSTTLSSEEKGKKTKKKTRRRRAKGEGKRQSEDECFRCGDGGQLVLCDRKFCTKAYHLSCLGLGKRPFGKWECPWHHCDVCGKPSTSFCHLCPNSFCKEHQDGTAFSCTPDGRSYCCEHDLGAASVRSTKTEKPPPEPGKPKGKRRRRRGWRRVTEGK

[13] = Luminescence Cell-Based Dose Confirmation HTS to Identify Inhibitors of Polyadenylation.; format: functional
Estrogen receptor = molecular target: T3, Estrogen receptor (Homo sapiens, UniProt P03372);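 also: potency for inhibiting coactivator peptide recruitment to the receptor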
T3 sequence (P03372 whole entry): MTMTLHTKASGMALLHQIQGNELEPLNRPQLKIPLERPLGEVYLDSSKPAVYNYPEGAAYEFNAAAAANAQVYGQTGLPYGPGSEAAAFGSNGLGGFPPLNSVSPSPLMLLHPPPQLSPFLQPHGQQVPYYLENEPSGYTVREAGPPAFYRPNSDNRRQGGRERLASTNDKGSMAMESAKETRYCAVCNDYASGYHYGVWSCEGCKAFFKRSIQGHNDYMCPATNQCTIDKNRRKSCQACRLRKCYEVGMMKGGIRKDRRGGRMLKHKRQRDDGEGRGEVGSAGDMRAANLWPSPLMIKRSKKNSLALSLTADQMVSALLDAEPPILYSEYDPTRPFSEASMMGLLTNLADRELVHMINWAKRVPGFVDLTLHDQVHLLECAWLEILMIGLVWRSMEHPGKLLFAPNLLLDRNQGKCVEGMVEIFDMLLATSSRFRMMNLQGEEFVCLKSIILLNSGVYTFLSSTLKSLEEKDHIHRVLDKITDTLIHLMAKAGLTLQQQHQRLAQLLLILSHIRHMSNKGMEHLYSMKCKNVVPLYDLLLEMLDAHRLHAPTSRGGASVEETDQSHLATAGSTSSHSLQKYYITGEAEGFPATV

Escherichia coli = test: microbe, parasite or virus in culture
[14] = HIV-1 Vif–A3G interaction blockers – biochemical, TR-FRET, GST-Vif 1-94, biotin-A3G peptide, dose response retest, primary screen (AID 1117319); format: functional;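 also: TR-FRET signal of purified GST-Vif binding a biotinylated A3G peptide; inhibitors lower the FRET signal by blocking Vif and A3G binding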
Estrogen receptor beta = Estrogen receptor beta (Homo sapiens, UniProt Q92731); test: blockers of SRC-3 recruitment to ERβ – biochemical, ELISA, streptavidin-HRP readout, orthogonal assay, confirmation (AID 1060)
Sequence of Estrogen receptor beta (Q92731 whole entry): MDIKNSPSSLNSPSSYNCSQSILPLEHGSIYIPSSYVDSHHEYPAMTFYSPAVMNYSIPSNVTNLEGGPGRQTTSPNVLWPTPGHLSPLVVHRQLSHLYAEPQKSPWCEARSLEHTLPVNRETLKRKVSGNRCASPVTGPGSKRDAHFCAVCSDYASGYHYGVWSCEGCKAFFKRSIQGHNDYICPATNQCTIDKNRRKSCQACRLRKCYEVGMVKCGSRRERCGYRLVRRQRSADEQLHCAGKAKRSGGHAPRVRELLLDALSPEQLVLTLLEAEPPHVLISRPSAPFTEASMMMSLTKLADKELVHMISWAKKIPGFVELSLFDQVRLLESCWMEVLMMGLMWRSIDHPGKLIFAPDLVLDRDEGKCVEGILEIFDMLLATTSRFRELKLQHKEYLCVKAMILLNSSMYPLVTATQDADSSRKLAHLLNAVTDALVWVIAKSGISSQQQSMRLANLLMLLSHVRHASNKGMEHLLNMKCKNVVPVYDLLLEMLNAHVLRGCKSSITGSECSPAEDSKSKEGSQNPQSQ

[15] = molecular target: T4, Dual specificity protein phosphatase 6 (Rattus norvegicus, UniProt Q64346); test: inhibition of rat DUSP6 enzyme activity – biochemical, in vitro, primary screen (AID 425)
T4 sequence (Q64346 whole entry): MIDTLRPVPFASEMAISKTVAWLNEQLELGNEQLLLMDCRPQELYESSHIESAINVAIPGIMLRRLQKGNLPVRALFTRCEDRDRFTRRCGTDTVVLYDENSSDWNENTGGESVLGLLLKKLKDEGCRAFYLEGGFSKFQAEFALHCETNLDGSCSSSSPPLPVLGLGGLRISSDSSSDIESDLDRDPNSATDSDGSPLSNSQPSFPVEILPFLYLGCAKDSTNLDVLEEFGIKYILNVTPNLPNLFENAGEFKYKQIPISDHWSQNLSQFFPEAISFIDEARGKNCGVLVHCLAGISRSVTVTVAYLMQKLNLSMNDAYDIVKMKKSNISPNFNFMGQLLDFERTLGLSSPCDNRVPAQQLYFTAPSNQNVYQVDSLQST

[16] = A549 cell cytotoxicity, dose response, cytotoxicity control, plate reader, cherry-pick, antagonist series (AID 743412); format: functional, cell-based
[17] = molecular target: Disintegrin and metalloproteinase domain-containing protein 17 (Homo sapiens, UniProt P78536); test: exosite inhibitors of ADAM17, dose response, biochemical (AID 743260)
Sequence of Disintegrin and metalloproteinase domain-containing protein 17 (P78536 whole entry, the tested form may be a part): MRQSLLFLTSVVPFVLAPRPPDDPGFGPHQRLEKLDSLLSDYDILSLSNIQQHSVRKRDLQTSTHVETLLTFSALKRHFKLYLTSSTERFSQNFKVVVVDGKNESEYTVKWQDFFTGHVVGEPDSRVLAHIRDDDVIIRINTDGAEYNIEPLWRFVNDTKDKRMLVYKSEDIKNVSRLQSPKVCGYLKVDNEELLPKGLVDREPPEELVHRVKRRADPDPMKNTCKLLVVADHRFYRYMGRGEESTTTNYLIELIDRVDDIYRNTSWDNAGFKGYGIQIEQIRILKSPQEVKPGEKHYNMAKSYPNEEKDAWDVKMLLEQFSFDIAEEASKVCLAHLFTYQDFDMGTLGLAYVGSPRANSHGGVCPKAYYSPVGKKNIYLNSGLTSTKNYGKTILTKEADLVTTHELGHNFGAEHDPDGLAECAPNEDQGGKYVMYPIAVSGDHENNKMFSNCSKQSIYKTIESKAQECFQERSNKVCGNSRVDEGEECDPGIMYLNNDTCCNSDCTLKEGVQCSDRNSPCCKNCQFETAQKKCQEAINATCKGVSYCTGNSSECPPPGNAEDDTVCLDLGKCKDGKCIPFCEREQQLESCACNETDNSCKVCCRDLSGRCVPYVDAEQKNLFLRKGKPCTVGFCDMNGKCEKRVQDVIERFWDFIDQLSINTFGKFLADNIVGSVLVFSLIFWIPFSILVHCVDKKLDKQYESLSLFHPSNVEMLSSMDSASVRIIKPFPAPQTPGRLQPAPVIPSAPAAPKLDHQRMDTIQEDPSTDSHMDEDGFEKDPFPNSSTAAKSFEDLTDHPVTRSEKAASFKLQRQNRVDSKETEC

[18] = inhibition of ADAM10 peptide cleavage – biochemical, FRET peptide substrate, recombinant human ADAM10, selectivity assay for ADAM17 exosite inhibitor project, dose response (AID 743259);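 also: ADAM10 enzyme cleaving a FRET peptide substrate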

Sequence of Sphingosine 1-phosphate receptor 2 (O95136 whole entry): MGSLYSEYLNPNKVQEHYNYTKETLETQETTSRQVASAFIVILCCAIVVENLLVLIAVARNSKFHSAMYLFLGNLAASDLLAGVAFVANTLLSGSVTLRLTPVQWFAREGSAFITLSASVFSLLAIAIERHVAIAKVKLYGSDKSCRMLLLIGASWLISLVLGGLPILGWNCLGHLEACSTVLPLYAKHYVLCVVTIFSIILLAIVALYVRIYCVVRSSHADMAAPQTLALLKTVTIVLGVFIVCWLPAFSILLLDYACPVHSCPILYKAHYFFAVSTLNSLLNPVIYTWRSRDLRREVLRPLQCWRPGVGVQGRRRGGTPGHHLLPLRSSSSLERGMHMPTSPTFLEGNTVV

## FC(F)(F)c1cnc2c(-c3cccs3)csc2c1
[1]
  IC50: > 30 µM (not active)

## Cc1cc(C)cc(NC(=O)c2nnn(Cc3cc(C)ccc3C)c2N)c1
[2]
  EC50: 13.6 µM (active)
[3]
  EC50: 39.8 µM (active)
[4]
  EC50: 18.2 µM (active)
[5]
  IC50: > 80 µM (inactive)
[6]
  EC50: 8.37 µM (active)

## CCCc1nc(SCC(=O)N2CCCC2)c2ccccc2n1
[7]
  IC50: 50.4 µM (not active)

## CCC(C)[C@H](N)c1nnc(SCC(=O)c2ccc(Cl)cc2)o1 (some centres not stated)
[5]
  IC50: > 80 µM (inactive)

## O=C1c2cccc3c([N+](=O)[O-])ccc(c23)C(=O)N1Cc1cccnc1
[8]
  EC50: 3.67 µM (active)
[9]
  EC50: 9.5 µM (active)
Beta-galactosidase
  IC50: 16.8 µM (active)

## O=C(Nc1ccccc1)N1CCCCN2[C@H](CO)[C@@H](c3ccc(C#CC4CC4)cc3)[C@@H]2C1
HeLa
  AC50: > 52 µM (inactive)
HEK293
  AC50: 14.4 µM (active)
[10]
  AC50: 14.4 µM (active)

## O=C(N/N=C/c1ccc([N+](=O)[O-])cc1)c1cc(-c2ccc3c(c2)OCO3)[nH]n1
[11]
  IC50: 7.27 µM (active)

## O=C(Nc1ccc(F)cc1)c1cc(-c2cccs2)nc2ccccc12
[1]
  IC50: > 30 µM (not active)

## COC(=O)C1=C(C)N(Cc2ccccc2)C(=S)NC1c1cccc(Br)c1 (configuration not stated)
Cryptococcus neoformans
  AC50: 36.5 µM (active)
HEK293
  AC50: 33.6 µM (active)
[10]
  AC50: 33.6 µM (active)

## COc1ccccc1NC(=O)COc1ccc(CO)cc1Cl
[7]
  IC50: 68.6 µM (not active)

## CCN1CCCC1CNc1[nH]cnc2c3cc(F)ccc3nc1-2 (configuration not stated)
[12]
  AC50: > 20 µM (inactive)

## O=C1c2cnc3nc(SCc4ccccc4)nn3c2CC2c3ccccc3CCN12 (configuration not stated)
[13]
  EC50: > 120 µM (not active)

## COC(=O)C1=C(C(=O)OC)C(C(=O)OC)C(C(=O)OC)C(C(=O)OC)(C(=O)OC)C(C(=O)OC)=C1C(=O)OC (configuration not stated)
Beta-galactosidase
  IC50: > 66.6 µM (inactive)

## Cc1ccc(NC(=O)/C(=C/c2cccc([N+](=O)[O-])c2)NC(=O)C2CCCCC2)c(C)c1
Estrogen receptor
  IC50: > 50 µM (not active)
[13]
  EC50: > 120 µM (not active)
Escherichia coli
  AC50: 62.4 µM (active)

## CCN(CC)c1ccc(C2C3CCCCC3(O)CCN2CC(=O)Nc2ccccc2)cc1 (configuration not stated)
[14]
  IC50: > 100 µM (active)

## Cc1ccc(S(=O)(=O)CCC(=O)Nc2ccc3c(c2)OCO3)cc1
[14]
  IC50: > 100 µM (active)

## O=C(Oc1coc(CSc2ncccn2)cc1=O)c1ccc(Br)o1
[13]
  EC50: > 120 µM (not active)

## O=C(O)C(O)c1ccco1 (configuration not stated)
Estrogen receptor
  IC50: > 50 µM (not active)
Estrogen receptor beta
  IC50: 3.23 µM (not active)
[15]
  IC50: 3.73 µM (active)

## C[C@H](CO)N1C[C@H](C)[C@@H](CN(C)C(=O)Nc2ccc3c(c2)OCO3)Oc2c(cccc2N(C)C)C1=O
[16]
  AC50: > 52 µM (inactive)

## Cc1ccsc1C(=O)Nc1ccc(F)cc1
[1]
  IC50: > 30 µM (not active)

## CC1CN(S(=O)(=O)c2ccc(NC(=O)c3cc(-c4ccccc4O)n[nH]3)cc2)CC(C)O1 (configuration not stated)
[17]
  IC50: > 69.5 µM (inactive)
[18]
  IC50: > 69.5 µM (inactive)

## O=C(Nc1cccc(Oc2ccc3c(c2)C(=O)NC3=O)c1)c1cccs1
[5]
  IC50: > 80 µM (inactive)
